The text below walks through data of patent US20220143231A1, “MACROCYCLIC COMPOUNDS AND METHODS OF USE THEREOF” (Janssen Biotech, Inc., priority 2020, published 2022).

This series in a line: Chelation test with La^3+ by HPLC. It is filed as physicochemical. The note with it: FIGS. 1A-1B.

Consider `CC(C)CCC(c1cccc(C(=O)O)n1)N1CCOCCOCCN(Cc2cccc(C(=O)O)n2)CCOCCOCC1` (centres unmarked) [TOPA-[C7]-isopentyl, 6-((16-(1-(6-carboxypyridin-2-yl)-4-methylpentyl)-1,4,10,13-tetraoxa-7,16-diazacyclooctadecan-7-yl)methyl)picolinic acid], for which the “chelation of La^3+ (shift in HPLC retention time after mixing)” value is “rapid chelation”. Under `O=C(O)c1cccc(CN2CCOCCOCCN(C(c3ccccc3)c3cccc(C(=O)O)n3)CCOCCOCC2)n1` (centres unmarked) [TOPA-[C7]-phenyl, 6-((16-((6-carboxypyridin-2-yl)(phenyl)methyl)-1,4,10,13-tetraoxa-7,16-diazacyclooctadecan-7-yl)methyl)picolinic acid] stands “rapid chelation”.
